Assay results published in US20160228444A1, “NUCLEOSIDE ANALOGS AND USES THEREOF” (Ramot at Tel-Aviv University Ltd., priority 2015, published 2016).
Counter-ions that a name gives are not always drawn. Like-named read-outs stand apart in the source and are kept apart here.

How the values were obtained:
HUT-78 CTCL cells = assay: Median-effect drug interaction, MTT viability, 72 h; assay type: cell-based, human
Description: (§1) Cell viability was determined by an MTT cell viability assay after 48 hours. MyLa cells (10^4 cells/well), Hut78 cells (5×10^3 cells/well) and normal PBLs (10^5 cells/well) were seeded in 96 well-plates. The PBLs were activated with 40 μg/10^6 cells of phytohemagglutinine (PHA) for 24 h before the experiment.
(§2) The ratios of the drug combination were based on the ratio of their IC50 of each drug alone. Cell viability was determined by MTT assay, as described hereinabove. The drugs were added to the cells and incubated for 72 h.

T47D cells = assay: Median-effect drug interaction, Hoechst viability, 72 h; assay type: cell-based, human
Description: as §2
(§3) Drug interaction in adherent cells was evaluated as above except that the viability was determined by Hoechst assay.

MDA-231 cells = assay: as above; assay type: cell-based, human; conditions: Homo sapiens
Description: as §2, §3

[1] = test system: NCI-N87 gastric carcinoma cells; assay: as above; assay type: cell-based, human; conditions: Homo sapiens
Description: as §2, §3

PBL = assay: Median-effect drug interaction, MTT viability, 72 h; assay type: cell-based; conditions: Homo sapiens
Description: as §1, §2

[2] = test system: U251 human glioblastoma xenograft; assay: Glioblastoma xenograft model (survival, body weight, tumor volume, tumor weight, Ki-67)
Description: Xenograft of glioblastoma: 8- to 10-week-old male Hsd athymic FOXN (Harlan, Jerusalem, Israel) were inoculated sc in the flanks with 5×10^6 U251 cells. Tumor length (L) and width (W) were measured with a caliper twice weekly. Tumor volumes were calculated according to the formula: (L×W2)/2. When the tumor was established (volume of 50-100 mm^3) the mice were randomly divided into six groups treated with: vehicle control (saline); ip Dox 4 mg/kg once weekly; po AN446 25 mg/kg thrice a week; po AN7 50 mg/kg thrice a week; combination of AN446+Dox (4 mg/kg ip Dox once a week and 25 mg/kg po AN446 thrice a week); AN7+Dox (4 mg/kg ip Dox once a week and 50 mg/kg po AN7 thrice weekly). Untreated, non-bearing tumor naive mice were maintained under the same conditions. The experiment was terminated after 25 treatment days, the mice were sacrificed under CO2 and their tumors and hearts were removed, weighed and divided into parts dedicated for immunohistochemistry (IHC) and the rest were frozen (−80° C.) for Western blot and Quantitative PCR (qRT-PCR) analyses.
Inactivation of avidin-biotin nonspecific binding was prevented by a blocking kit, according to the manufacturer's protocol (Vector Laboratories). […] The secondary antibody was biotin conjugated goat anti-rabbit or anti-mouse IgG. Slides were then stained with the ABC peroxidase system, developed with diaminobenzidine (DAB) (Vector Laboratories) and counterstained with hematoxylin (Bio-Optica, Milano, Italy). The slides were examined using an Olympus BX 52 light microscope, and images were taken with an Olympus DP50 digital camera system.
Mice were implanted subcutaneously with U251 cells and when the tumors reached 50-100 mm^3 treatments were initiated. Survival was evaluated by the Kaplan-Meier end-product analysis, where treatment failure (the experimental end points) was a loss of ˜20% body weight, or a tumor volume of >1 cm^3.

TNF-α = assay: Serum TNF-α in U251 xenograft mice (ELISA); assay type: in vivo; conditions: single agent, FIG. 8C
Description: (§4) AN446 was tested in vivo using a xenograft of glioblastoma (U251 cells) in mice.

HO-1 = HO-1 protein and mRNA in tumor and heart of xenograft mice (Western blot, qRT-PCR); assay type: in vivo; conditions: single agent
Description: (§5) Tumors and hearts of the mice were rapidly removed, frozen on dry ice and kept at −70° C. Tissue was then homogenized and RNA and proteins extracted using the NucleoSpin® RNA/Protein kit according to the manufacturer's protocol (Macherey-Nagel, GmbH & Co KG).
(§6) Total RNA ([…]) was primed by oligo dT and reverse-transcribed by Verso cDNA kit according to the manufacturer's protocol (Thermo Scientific). Analyses of qPCR were performed with Kapa Sybr® Fast (Kapa Biosystems) on a Step One Plus thermocycler (Applied Biosystems). The comparative threshold method was used to calculate the relative gene expression. Values were normalized against glyceraldehyde 3-phosphate dehydrogenase (GAPDH). Expression of the GAPDH mRNA in each individual sample was used to normalize the dataset. The sequences of the primers were as follows: […]
(§7) Protein levels in the samples were determined with the BCA protein assay kit (Pierce). The samples were subjected to Western blot analyses. The expression of proteins was visualized using their specified primary antibodies followed by the secondary IgG IRDye® 680DX antibody. Each detected band was quantified using the Odyssey Infrared Imaging System (LI-COR Biosciences) and normalized to the level of actin. The fold increase of a specific protein was determined by the ratio of the band intensity obtained from treated and untreated samples.
The effect of the drugs on the expression of genes associated with cell survival and death was examined by following changes in transcription and protein expression in tissue samples taken from the mice with glioblastoma xenografts. Heme oxygenase (HO-1) is known to play a protective role in the heart, whereas, in many cancers it is expressed and promotes growth and survival of neoplastic cells.

bFGF = bFGF protein and mRNA in tumor and heart of xenograft mice (Western blot, qRT-PCR); assay type: in vivo; conditions: single agent
Description: as §5, §6, §7
(§8) The pro-angiogenic factors basic fibroblast growth factor (bFGF) and vascular endothelial growth factor (VEGF) are potent angiogenic stimulators. The expression of bFGF in the tumor and in the heart was evaluated by Western blot and qRT-PCR analyses and expression of VEGF by IHC.

VEGF = VEGF immunohistochemistry in tumor and heart of xenograft mice; assay type: in vivo; conditions: FIG. 4F
Description: as §8

[3] = test system: U251 MG human glioma cells; assay: FACS viability, annexin V-FITC / PI; assay type: cell-based; conditions: AN446 24 h; 200 nM Dox 5 h; combination compared to Dox alone; FIG. 1C
Description: (§9) Cell viability by flow cytometry analysis (FACS) analysis was determined using the Mebcyto apoptosis kit (MBL-Japan). The cell lines 4T1, U251 (2×10^5 cells/well), astrocytes and the cardiomyoblastic cell line H9C2 (5×10^5 cells/well) were seeded in six-well plates. Following treatment they were trypsinized, washed with PBS, resuspended in […] of binding buffer and double-stained with annexin V-FITC and propidium iodide (PI) according to the manufacturer's instructions. The stained cells were subjected to FACS analyses (Calibur cytometer, Becton Dickinson) where 30,000 cells were allowed to flow for each determination point and the percentage of cells in each state (viability or death) was defined by their distribution in fluorescence dot-plots using WinMdi 2.8 software (Scripps Research Institute, La-Jolla, USA).
(§10) The apoptotic effect of AN446, Dox and their combination was evaluated in U251 and 4T1 cancer cells, and in the non-cancerous rat cardiomyoblast cell line (H9C2) and in primary rat astrocytes, using procedures previously described for AN7 [Tarasenko et al., Invest New Drugs 2012, 30:130-143].

[4] = test system: murine mammary carcinoma 4T1; assay: FACS viability, annexin V-FITC / PI; assay type: cell-based; conditions: AN446 24 h; 200 nM Dox 5 h; combination compared to Dox alone; FIG. 1C
Description: as §9, §10

fibrous collagen = assay: Fibrosis in tumor, heart and kidney of U251 xenograft mice (Picrosirius Red / Fast Green); assay type: in vivo; conditions: single agent
Description: as §4

c-Myc = c-Myc and p-c-Myc (Thr 58) Western blot in tumor and heart of xenograft mice; assay type: in vivo
Description: as §7
The c-Myc protein is an important regulator of normal cell physiology and in tumor cells it plays an important role in activating oncogenic pathways [Soucek & Evan, Curr Opin Genet Dev 2010, 20:91-95].

COc1cccc2c1C(=O)c1c(O)c3c(c(O)c1C2=O)C[C@@](O)(C(=O)CO)C[C@@H]3O[C@H]1C[C@H](N)[C@H](O)[C@H](C)O1 [Dox, Doxorubicin hydrochloride]
IC50 (HUT-78 CTCL cells; HUT-78, single agent, hydrochloride, read-out: Dox IC50): 31 nM | IC50 (HUT-78 CTCL cells; Homo sapiens, HuT78, HUT-78, Dox in combination with AN446, read-out: Dox com IC50): 11 nM | IC50 (HUT-78 CTCL cells; Homo sapiens, HuT78, HUT-78, Dox in combination with SAHA, read-out: Dox com IC50): 12 nM | IC50 (HUT-78 CTCL cells; Homo sapiens, HuT78, HUT-78, single agent, read-out: Dox IC50): 30.8 nM | IC50 (T47D cells; Homo sapiens, Dox in combination with AN446, read-out: Dox com IC50): 7.6 nM | IC50 (T47D cells; Homo sapiens, Dox in combination with SAHA, read-out: Dox com IC50): 5.2 nM | IC50 (T47D cells; Homo sapiens, single agent, read-out: Dox IC50): 19 nM | IC50 (T47D cells; single agent, hydrochloride, read-out: Dox IC50): 19.1 nM | IC50 (MDA-231 cells; MDA-MB-231, MDA-231, Dox in combination with AN446, read-out: Dox com IC50): 5.3 nM | IC50 (MDA-231 cells; MDA-MB-231, MDA-231, Dox in combination with SAHA, read-out: Dox com IC50): 4.3 nM | IC50 (MDA-231 cells; MDA-MB-231, MDA-231, single agent, read-out: Dox IC50): 10.2 nM | IC50 ([1]; NCI-N87, NCI-N87, Dox in combination with AN446, read-out: Dox com IC50): 8.5 ± 1 nM | IC50 ([1]; NCI-N87, NCI-N87, single agent, read-out: Dox IC50): 30 ± 1.3 nM | IC50 (PBL; Dox in combination with AN446, read-out: Dox com IC50): 15 nM | IC50 (PBL; Dox in combination with SAHA, read-out: Dox com IC50): 20 nM | IC50 (PBL; single agent, read-out: Dox IC50): 70 nM | body weight ([2]; Dox 4 mg/kg ip once a week, from day 13): drastic decrease in body weight | treatment failure ([2]; Dox 4 mg/kg ip once a week, weight loss contributing): 60% | Ki-67 positive cells in tumors ([2]; single agent vs vehicle, FIGS. 3E, 3F): considerably more Ki-67 positive cells were detected in tumors of the vehicle-treated mice | survival of mice until end of experiment (day 25) ([2]; single agent: AN446 25 mg/kg or AN7 50 mg/kg po thrice weekly, Dox 4 mg/kg ip once a week, FIG. 3A): 40% | serum levels of TNF-α (TNF-α): increased serum levels of TNF-α | HO-1 mRNA in the heart (HO-1; heart): decreased HO-1 mRNA | HO-1 expression in the heart (decrease) (HO-1; heart, FIGS. 4D, 4E): ~5 fold | tumor HO-1 protein expression (decrease) (HO-1; tumor, FIGS. 4A, 4B): unchanged | expression of mouse bFGF protein in the heart (bFGF; heart, FIG. 4D): decreased significantly | bFGF mRNA in the tumor (bFGF; tumor, FIG. 6): significantly reduced the bFGF mRNA | expression of bFGF in tumors (bFGF; tumor, FIGS. 4A, 4B): decreased significantly | VEGF expression in the heart (VEGF): reduced | viability / mortality of U251 cells [3]: significantly reduced the viability | viability / mortality of 4T1 cells [4]: significantly reduced the viability | fibrosis in the heart (fibrous collagen; heart, FIGS. 8A-8C): induced fibrosis | fibrosis in the kidneys (fibrous collagen; kidneys, FIG. 8A): induced fibrosis | fibrosis in the tumor (fibrous collagen; tumor, FIG. 8A): reduced fibrosis | c-Myc protein expression in the hearts (c-Myc; heart, FIG. 5B): repressed | c-Myc protein expression in tumors (c-Myc; tumor, FIG. 5A): unaffected
